In US20260274859A1, “FUSED POLYCYCLIC DERIVATIVE AND USE THEREOF” (ZHEJIANG HISUN PHARMACEUTICAL CO., LTD., priority 2023, published 2026):

Tests used:
Format in all cases: cell-based
HK-2 cells = assay: Inhibition of proliferation of HK-2 cells (normal cells; CCK8 or CTG); settings: Homo sapiens, maximum concentration 10 μM, 5-fold dilution
Method: (1) HK-2 cells in the logarithmic growth phase were digested with 0.25% trypsin and counted. The cells were inoculated into 96-well plates at 2000 cells per well, and the 96-well plates were placed and cultured in an incubator containing 5% CO2 at 37° C. for 12 h.
(§1) (2) Six concentration gradients for the compound to be tested (with the maximum drug concentration of 10 μM and 5-fold dilution) were set. After the cells adhered to the wall, the compounds to be tested were serially diluted with DMSO, then diluted with 1640 complete medium to reach a concentration 1000 times the final concentration, and added to the corresponding wells.
(§2) (3) After the corresponding concentrations of the compounds to be tested were added, the plates were incubated in an incubator with 5% carbon dioxide at 37° C., and then the cell viability rate at each drug concentration was determined by CCK8 or CTG method. In addition, the IC50 value was calculated.

HL60 cells = assay: Inhibition of proliferation of HL60 tumor cells (CCK8 or CTG); settings: Homo sapiens, HL-60
Method: The effect of the compound of the present disclosure on the proliferation of tumor cells was determined using the following method. The HL60 cells used in the method were purchased from Nanjing Kebai Biotechnology Co., Ltd., and the kit was the Cell Counting Kit-8/CCK-8 kit of MCE Company (article number: HY—K0301, specification: 3000T).
(1) HL60 cells in logarithmic growth phase were prepared into a cell suspension. The cell suspension was added into a 96-well plate at 5000 cells/well. The 96-well cell culture plate was placed in a CO2 incubator for 4 h of incubation of suspended cells or for 12 h of incubation of adherent cells.
(2) The compounds to be tested were diluted with IMDM complete culture medium to reach a concentration twice the testing concentration, and added to the corresponding wells.
as §2

A549 cells = assay: Inhibition of proliferation of A549 cells (CCK8 or CTG); settings: Homo sapiens, maximum concentration 10 μM, 5-fold dilution
Method: (1) A549 cells in the logarithmic growth phase were digested with 0.25% trypsin and counted. The cells were inoculated into 96-well plates at 2000 cells per well, and the 96-well plates were placed in an incubator containing 5% CO2 at 37° C. for 12 h of culture.
as §1, with “for the compounds to be” for “for the compound to be”
as §2

IC50 (HL60 cells): < 150 nM
IC50 (A549 cells): 7.8 nM
Structure (SMILES): CC(C)NC1CCC(C(=O)Nc2sc3c(c2-c2nc4ccc(-c5ccc(N6CCNCC6)nc5)cc4s2)CCNC3)CC1 (stereo not drawn) [Compound 069, 4-(isopropylamino)-N-(3-(6-(6-(piperazin-1-yl)pyridin-3-yl)benzo[d]thiazol-2-yl)-4,5,6,7-tetrahydrothieno [2,3-c]pyridin-2-yl) cyclohexane-1-carboxamide]
IC50 (HK-2 cells): 2440 nM
